What all share (experiment): NCI-60 cell line screen, 48 h
Experiment [1] has as its system A549 NSCLC.
Experiment [2] relates to IGROV1 ovarian.
The subject of experiment [3] is KM12 colon.
Experiment [4] has as its system NCI-H460 lung.
The subject of experiment [5] is OVCAR-5 ovarian.
In experiment [6] the test system is OVCAR-8 ovarian.
The test system of experiment [7] is SK-OV-3 ovarian.
Experiment [8] concerns SW-620 colon.
Experiment [9] has as its system UACC-257 melanoma.
Experiment [10] concerns MOLT-4 leukemia.

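48-hour exposure; five concentrations; linearly interpolated endpoints. GI50 is the concentration that inhibits growth by half. The concentration for full growth arrest is given as TGI.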

On to `COc1cc(-c2csc(NC(=O)Nc3ccc(Cl)cc3)n2)cc(OC)c1OC`, for which the GI50 is 3.15 µM in experiment [1]; 3.18 µM in experiment [2]; 2.57 µM in experiment [3]; 3.32 µM in experiment [4]; 3.56 µM in [5]; 2.46 µM in experiment [6]. Moreover, the GI50 in [7] is 3 µM; in [8], 3.96 µM; in experiment [9], 2.48 µM. In addition, the TGI in [1] is 13.4 µM; in [2], 29.5 µM; in [3], 7.9 µM; in experiment [4], greater than 48.4 µM; in experiment [5] it was 21 µM; in experiment [6], 5.85 µM. The TGI in experiment [7] was 8.91 µM; in experiment [8] it was greater than 100 µM; in experiment [9] it was 6.03 µM.
Consider `[Cu].c1ccc2c(c1)C1=NC2=NC2=NC(=NC3=NC(=NC4=NC(=N1)c1ccccc14)c1ccccc13)c1ccccc12`, for which the GI50 in experiment [1], in experiment [2], in [3], in experiment [4], in experiment [5] and in experiment [6] was greater than 100 µM each time. The GI50 in experiment [7], in experiment [8] and in experiment [9] was greater than 100 µM each time. For the same compound, the TGI in experiment [1], in [2], in experiment [3], in experiment [4], in experiment [5] and in [6] was greater than 100 µM throughout. Also, the TGI in experiment [7], in experiment [8] and in [9] was greater than 100 µM each time.
`O=C1/C(=C/c2cc(O)c(O)c(O)c2)Oc2cc(O)cc(OC3OC(CO)C(O)C(O)C3O)c21` (stereo not given): the TGI was greater than 100 µM in [1]; greater than 100 µM in [2]; greater than 100 µM in [3]; 43.4 µM in [10]; 34 µM in [4]; 35.7 µM in [6]. Further, the TGI was greater than 100 µM in [7] and 58.3 µM in [8].
As for `O=C(O)CN(CCN(CC(=O)O)CC(=O)O)CCN(CC(=O)O)CC(=O)O`, the GI50 in [1] is 1.62 µM; in [3], 4.94 µM; in experiment [10], 2.57 µM; in experiment [4], 2.49 µM; in experiment [5], 4.01 µM; in [6], 3.19 µM. Besides, the GI50 in experiment [7] was 3.19 µM; in [8], 3.85 µM; in experiment [9] it was 4.35 µM. For the same compound, the TGI in experiment [1] was 3.5 µM; in experiment [3] it was 37.6 µM; in experiment [10] it was 8.26 µM; in [4] it was 7.09 µM; in [5], 20 µM; in experiment [6], 14.8 µM. Moreover, the TGI is 8.62 µM in experiment [7], 19 µM in experiment [8] and 18.8 µM in experiment [9].
With `c1ccc2[nH]c(-c3ccc(Nc4nc(N5CCCC5)nc5[nH]ncc45)cc3)nc2c1`, the GI50 in experiment [1] is 0.329 µM; in [4] it was 0.412 µM; in [5], 1.23 µM; in experiment [6], 0.241 µM; in experiment [7], 2.55 µM; in [8] it was 0.211 µM. For the same compound, the GI50 in experiment [9] is 0.229 µM. Also, the TGI came to 1.22 µM in [1]; 1.77 µM in experiment [4]; 2.87 µM in experiment [5]; 0.621 µM in [6]; 4.87 µM in [7]; 0.486 µM in experiment [8]. In experiment [9], this compound showed a TGI of 0.632 µM.
Turning to `O=S(=O)(c1ccccc1)N1CCC1c1ccccc1` (stereo not given), the TGI in [1], in experiment [2], in experiment [3], in experiment [10], in experiment [4] and in experiment [6] was greater than 100 µM each time. The TGI in experiment [7], in [8] and in [9] was greater than 100 µM throughout.
Take `CN(c1ccccc1)c1nc(=[N+](C)C)ss1`: the TGI in experiment [1], in [2], in experiment [3], in experiment [4], in experiment [5] and in experiment [6] was greater than 100 µM each time. Further, the TGI in [7], in experiment [8] and in experiment [9] was greater than 100 µM in each case.
With `Clc1ccc2c(NC3CCC(NC4CCCCC4)CC3)ccnc2c1` (stereo not given), the GI50 in [1] was 4.84 µM; in [2], 6.64 µM; in [3] it was 5.34 µM; in experiment [4], 5.27 µM; in experiment [5], 18.5 µM; in experiment [6], 4.43 µM. In addition, the figures for the GI50 in [7], in experiment [8] and in [9] were 15.9 µM, 1.92 µM and 2.18 µM, respectively. Also, the TGI in [1] came to 17.3 µM; in experiment [2], 30.8 µM; in experiment [3], 18.9 µM; in experiment [4], 18.6 µM; in experiment [5] it was 54.4 µM; in experiment [6] it was 19.3 µM. The TGI was 46.2 µM in experiment [7], 4.19 µM in experiment [8] and 4.17 µM in experiment [9].
As for `Cc1cc2c(cc1Cl)SC(=Nc1ccc(Cl)cc1)N(S(=O)(=O)c1ccc(Br)s1)S2(=O)=O`, the GI50 was 18 µM in [1]; 17.6 µM in experiment [2]; 16.2 µM in experiment [3]; 35.2 µM in [4]; 15.7 µM in [5]; 18.8 µM in experiment [6]. Besides, the GI50 in [7] is 34.5 µM; in experiment [8], 24.5 µM; in experiment [9], 16 µM. Besides, the TGI is 48.7 µM in experiment [1]; 55.2 µM in [2]; 37.7 µM in experiment [3]; greater than 100 µM in [4]; 34.1 µM in [5]; 46.1 µM in experiment [6]. For the same compound, the TGI is 97.1 µM in experiment [7], greater than 100 µM in [8] and 38.7 µM in experiment [9].
